Results taken from patent publication US8859284B2, “Delivery of nanoparticles to neurons” (The United States of America, as represented by the …, priority 2009, dated 2014).
Square brackets hold non-standard residues; d marks the D form. Ends that are not written are not given here. * marks the point of attachment. Farnesyl = CC(C)=CCC/C(C)=C/CC/C(C)=C/C*; Palmitoyl = CCCCCCCCCCCCCCCC(=O)*; Dapaa = not defined here; Dapdi = not defined here; Dab = NCC[C@H](N)C(=O)O; Dap = NC[C@H](N)C(=O)O; Kh = not defined here; bi = not defined here; Aib = CC(C)(N)C(=O)O

How the values were obtained:
[1] = tested on: COS-1 cells; assay: Cellular uptake and endosomal escape of QD-peptide assemblies, fluorescence microscopy; assay type: cell-based, African green monkey; conditions: for % Escape in cells with uptake: QD-peptide assemblies; for Overall uptake/escape: uptake: first word of the cell; for Overall uptake/escape: escape: second word of the cell; for intracellular distribution of QD-peptide assemblies: COS-1, 1 hr incubation, 24 hr culture
Protocol: Merged images were generated using Adobe PhotoShop.
The peptide assemblies were incubated with COS-1 cells for 1 hr, removed, and the cells were subsequently cultured for 24 hr prior to fixation. An AlexaFluor 647-transferrin (Tf) conjugate was included during the incubation to label the vesicles of the endocytic pathway. Cell nuclei were stained with DAPI.

[2] = tested on: HEK 293T/17 cells; assay: Cellular delivery of QDs, intracellular fate by fluorescence microscopy; conditions: for disruption of endosomes: with QD-CPP, 2-3 h, highest concentrations (500 mM sucrose or 500 μM chloroquine)
Protocol: Human embryonic kidney (HEK 293T/17) and African green monkey kidney (COS-1) cell lines (ATCC, Manassas, Va.) were cultured in complete growth medium (Dulbecco's Modified Eagle's Medium (DMEM; purchased from ATCC)) supplemented with 1% (v/v) antibiotic/antimycotic and 10% (v/v) heat inactivated fetal bovine serum (ATCC). Cells were cultured in T-25 flasks and incubated at 37° C. under 5% CO2 atmosphere and a subculture was performed every 3-4 days (see reference 13).
The QD delivery experiments were performed on adherent cells seeded into the wells of Lab-Tek 8-well chambered #1 borosilicate coverglass (Nalge Nunc, Rochester, N.Y.) coated with 2 μg/mL fibronectin. For electroporation and nucleofection, adherent cells were harvested by trypsinization prior to performing QD delivery to cells in suspension. Cells were then seeded to chambered coverglass wells and imaged after cell attachment. The endosomal marker AlexaFluor647-transferrin was included as indicated in the text. For imaging, cells were washed with phosphate buffered saline (PBS, 137 mM NaCl, 10 mM phosphate, 3 mM KCl, pH 7.4), fixed with 3.7% paraformaldehyde in PBS and nuclei were stained with DAPI (Sigma) unless otherwise indicated.
For electroporation, cells were harvested by trypsinization and recovered for 1 hour in complete growth medium, pelleted, and resuspended in PBS. 510 nm DHLA-PEG QDs (0.5 μM final concentration) were mixed with 1×10^4 cells to a final volume of 100 μL in PBS in a 0.2 mm electroporation cuvette. The cuvette was subjected to 100 V for a 20 ms pulse using a GenePulser XCell electroporator (Bio-Rad, Hercules, Calif.). Cells were resuspended in complete growth medium, seeded into fibronectin-coated 8-well chambered coverglass, fixed and imaged after 24 hrs. For nucleofection delivery, 1×10^6 cells were harvested and resuspended in 100 μL of NUCLEOFECTOR reagent (Amaxa, Gaithersburg, Md.). 510 nm DHLA-PEG QDs were included at a final concentration of 0.4 μM. The cell/QD/reagent mixture was pulsed in the NUCLEOFECTOR using a preset protocol adapted for each specific cell line (20, 21). Cells were cultured and imaged as described for electroporation.
The INFLUX cell-loading reagent mediates the intracellular release of materials internalized via pinocytic vesicles by delivering the materials to cells in a hypertonic medium followed by the transfer of the cells to a hypotonic medium to induce vesicle disruption (see reference 22). 510 nm DHLA-PEG QDs were diluted to a final concentration of 300-800 nM in the supplied hypertonic delivery media according to manufacturer's instructions and incubated on the cells for 30 min at 37° C. The hypertonic medium was exchanged for hypotonic medium (serum-free culture medium diluted by 40% with deionized water) and incubated on the cells for 3 min. The cells were then recovered in complete growth medium for 30 min and cultured for various lengths of time prior to washing and fixation for imaging.
520 nm QDs with a 1:1 mixed surface of DHLA:DHLA-PEG were incubated with LIPOFECTAMINE 2000 for 20 min in serum free medium at a ratio of 1 μL LIPOFECTAMINE 2000 per 1.5 pmol QD. The complexes, at a final QD concentration of 75 nM, were incubated with the cells for 4 hours, removed and replaced with complete growth medium. The cells were then cultured for 24-36 h prior to washing and fixation.
PEI was incubated with 520 nm mixed surface DHLA:DHLA-PEG QDs in serum free medium at a ratio of 10 μg PEI per 1 pmol QD for 15 min. […] The complexes were then diluted into serum free media to a final QD concentration of 75-100 nM, incubated with cells for 2 h and removed. Cells were then cultured in complete media for 24-36 h, washed and fixed.
A stock solution of 520 nm DHLA:DHLA-PEG QDs (1 μM in 0.1 M borate buffer, pH 8.9) was diluted to 0.5 μM in HEPES (4-(2-hydroxyethyl)-1-piperazineethanesulfonic acid, pH 8.2).

Molecule: WGDapaVKIKK(Aib)9GG(H)6 (WG[Dap](Palmitoyl)VKIKK[Aib][Aib][Aib][Aib][Aib][Aib][Aib][Aib][Aib]GGHHHHHH) [JB747]
- % Escape in cells with uptake ([1]; COS1 cells): 58%
- Overall uptake/escape: uptake ([1]; COS1 cells): High
- Overall uptake/escape: escape ([1]; COS1 cells): moderate

Molecule: WGDapVRL(P)3VRL(P)3VRL(P)3GG(H)6 (WG[Dap]VRLPPPVRLPPPVRLPPPGGHHHHHH) [JB868]
- % Escape in cells with uptake ([1]; COS1 cells): 18%
- Overall uptake/escape: uptake ([1]; COS1 cells): Moderate
- Overall uptake/escape: escape ([1]; COS1 cells): low

Molecule: CCN(CC)CCCC(C)Nc1ccnc2cc(Cl)ccc12 (stereo not drawn) [chloroquine]
- Toxicity [2]: significant cellular toxicity and morbidity
- disruption of endosomes [2]: efficiently disrupted the endosomes

Molecule: WGDapVKIKK(P)9GG(H)6 (WG[Dap]VKIKKPPPPPPPPPGGHHHHHH) [JB579]
- % Escape in cells with uptake ([1]; COS1 cells): 29%
- Overall uptake/escape: uptake ([1]; COS1 cells): Low
- Overall uptake/escape: escape ([1]; COS1 cells): low

Molecule: WGDapaGDapaVKIKK(P)9GG(H)6 (WG[Dap](Palmitoyl)G[Dap](Palmitoyl)VKIKKPPPPPPPPPGGHHHHHH) [JB580]
- % Escape in cells with uptake ([1]; COS1 cells): 92%
- Overall uptake/escape: uptake ([1]; COS1 cells): Low
- Overall uptake/escape: escape ([1]; COS1 cells): high

Molecule: WGDabaVKIKK(P)9GG(H)6 (WG[Dab](Palmitoyl)VKIKKPPPPPPPPPGGHHHHHH) [JB858]
- % QD uptake (n), result in words ([1]; COS1 cells, cell continues in r20 'localized'): Membrane

Molecule: WGDapdiVKIKK(P)9GG(H)6 (WG[Dapdi]VKIKKPPPPPPPPPGGHHHHHH; reading uncertain) [JB641]
- % Escape in cells with uptake ([1]; COS1 cells): 88%
- Overall uptake/escape: uptake ([1]; COS1 cells): Moderate
- Overall uptake/escape: escape ([1]; COS1 cells): high

Molecule: WdGDapdiVKIKK(P)9GG(H)6 [JB621]
- % Escape in cells with uptake ([1]; COS1 cells): 90%
- Overall uptake/escape: uptake ([1]; COS1 cells): Low
- Overall uptake/escape: escape ([1]; COS1 cells): high

Molecule: AcG(Pal)DapVKIKKGLAPAAGG H6 (Ac-G[Dap](Palmitoyl)VKIKKGLAPAAGGHHHHHH) [Palm-3b]
- intracellular distribution of QD-peptide assemblies [1]: nearly entirely sequestered within endosomes

Molecule: WGCcVKIKK(P)9GG(H)6 [JB589]
- % Escape in cells with uptake ([1]; COS1 cells): 50%
- Overall uptake/escape: uptake ([1]; COS1 cells): Low
- Overall uptake/escape: escape ([1]; COS1 cells): moderate

Molecule: O=C(O)CCCc1ccc2ccc3cccc4ccc1c2c34 [pyrenebutyrate]
- intracellular distribution of QDs ([2]; HEK 293T/17, endosomal marker AlexaFluor 647-transferrin): no cytosolic dispersal was observed

Molecule: VKIKKWGDapa(P)9GG(H)6 (VKIKKWG[Dap](Palmitoyl)PPPPPPPPPGGHHHHHH) [JB862]
- % Escape in cells with uptake ([1]; COS1 cells): 9%
- Overall uptake/escape: uptake ([1]; COS1 cells): Low
- Overall uptake/escape: escape ([1]; COS1 cells): low

Molecule: WGCgVKIKK(P)9GG(H)6 (WGC(Farnesyl)VKIKKPPPPPPPPPGGHHHHHH; not fully specified) [JB872]
- % Escape in cells with uptake ([1]; COS1 cells): 79%
- Overall uptake/escape: uptake ([1]; COS1 cells): High
- Overall uptake/escape: escape ([1]; COS1 cells): high

Molecule: (H)6GG(P)9WGDapaVKIKK (HHHHHHGGPPPPPPPPPWG[Dap](Palmitoyl)VKIKK) [JB859]
- % Escape in cells with uptake ([1]; COS1 cells): 17%
- Overall uptake/escape: uptake ([1]; COS1 cells): Moderate
- Overall uptake/escape: escape ([1]; COS1 cells): low

Molecule: WGDapaVKIKK(P)12GG(H)6 (WG[Dap](Palmitoyl)VKIKKPPPPPPPPPPPPGGHHHHHH) [JB865]
- % Escape in cells with uptake ([1]; COS1 cells): 68%
- Overall uptake/escape: uptake ([1]; COS1 cells): High
- Overall uptake/escape: escape ([1]; COS1 cells): moderate

Molecule: WGDapVRRRIRR(P)9GG(H)6 (WG[Dap]VRRRIRRPPPPPPPPPGGHHHHHH) [JB585]
- % Escape in cells with uptake ([1]; COS1 cells): 25%
- Overall uptake/escape: uptake ([1]; COS1 cells): Low
- Overall uptake/escape: escape ([1]; COS1 cells): low

Molecule: WGDapaRRRIRR(P)9GGK [JB588]
- % Escape in cells with uptake ([1]; COS1 cells): 85%
- Overall uptake/escape: uptake ([1]; COS1 cells): High
- Overall uptake/escape: escape ([1]; COS1 cells): high

Molecule: KETWWETWWTEWSQPKKKRKVSGAibAAAGG(H)6 (KETWWETWWTEWSQPKKKRKVSG[Aib]AAAGGHHHHHH) [JB719, Chariot peptide, reference compound]
- % Escape in cells with uptake ([1]; COS1 cells): 43%
- Overall uptake/escape: uptake ([1]; COS1 cells): Moderate
- Overall uptake/escape: escape ([1]; COS1 cells): moderate

Molecule: OC[C@H]1O[C@@](CO)(O[C@H]2O[C@H](CO)[C@@H](O)[C@H](O)[C@H]2O)[C@@H](O)[C@@H]1O [sucrose]
- Toxicity [2]: significant cellular toxicity and morbidity
- disruption of endosomes [2]: efficiently disrupted the endosomes

Molecule: AcG(Pal)DapVKIKKGLAAAAGG H6 (Ac-G[Dap](Palmitoyl)VKIKKGLAAAAGGHHHHHH) [Palm-2b]
- intracellular distribution of QD-peptide assemblies [1]: nearly entirely sequestered within endosomes

Molecule: WGDapaaVKIKK(P)9GG(H)6 (WG[Dapaa]VKIKKPPPPPPPPPGGHHHHHH; reading uncertain) [JB866]
- % Escape in cells with uptake ([1]; COS1 cells): 11%
- Overall uptake/escape: uptake ([1]; COS1 cells): Moderate
- Overall uptake/escape: escape ([1]; COS1 cells): low

Molecule: WGDapaVRRRIRR(P)9GG(H)6 (WG[Dap](Palmitoyl)VRRRIRRPPPPPPPPPGGHHHHHH) [JB583]
- % Escape in cells with uptake ([1]; COS1 cells): 41%
- Overall uptake/escape: uptake ([1]; COS1 cells): Low
- Overall uptake/escape: escape ([1]; COS1 cells): moderate

Molecule: WGDapaVRL(P)3VRL(P)3VRL(P)3GG(H)6 (WG[Dap](Palmitoyl)VRLPPPVRLPPPVRLPPPGGHHHHHH) [JB869]
- % Escape in cells with uptake ([1]; COS1 cells): 55%
- Overall uptake/escape: uptake ([1]; COS1 cells): High
- Overall uptake/escape: escape ([1]; COS1 cells): moderate

Molecule: WGDapaVKIKK(P)4GG(H)6 (WG[Dap](Palmitoyl)VKIKKPPPPGGHHHHHH) [JB582]
- Overall uptake/escape: uptake ([1]; COS1 cells): None
- Overall uptake/escape: escape ([1]; COS1 cells): none

Molecule: WGDapa(P)9GG(H)6 (WG[Dap](Palmitoyl)PPPPPPPPPGGHHHHHH) [JB578]
- % Escape in cells with uptake ([1]; COS1 cells): 46%
- Overall uptake/escape: uptake ([1]; COS1 cells): Low
- Overall uptake/escape: escape ([1]; COS1 cells): moderate

Molecule: (H)6GG(P)9VKIKKDapaGW (HHHHHHGGPPPPPPPPPVKIKK[Dap](Palmitoyl)GW) [JB860]
- % Escape in cells with uptake ([1]; COS1 cells): 60%
- Overall uptake/escape: uptake ([1]; COS1 cells): Moderate
- Overall uptake/escape: escape ([1]; COS1 cells): moderate

Molecule: WGDapaVKIKK(P)9GGKb [JB728]
- % Escape in cells with uptake ([1]; COS1 cells): 93%
- Overall uptake/escape: uptake ([1]; COS1 cells): High
- Overall uptake/escape: escape ([1]; COS1 cells): high

Molecule: WGDapaVKIKK(P)15GG(H)6 (WG[Dap](Palmitoyl)VKIKKPPPPPPPPPPPPPPPGGHHHHHH) [JB864]
- % Escape in cells with uptake ([1]; COS1 cells): 85%
- Overall uptake/escape: uptake ([1]; COS1 cells): High
- Overall uptake/escape: escape ([1]; COS1 cells): high

Molecule: WGDapeVKIKK(P)9GG(H)6 [JB729]
- % Escape in cells with uptake ([1]; COS1 cells): 84%
- Overall uptake/escape: uptake ([1]; COS1 cells): High
- Overall uptake/escape: escape ([1]; COS1 cells): high

Molecule: AcG(Pal)DapVKIKK P9GG H6 (Ac-G[Dap](Palmitoyl)VKIKKPPPPPPPPPGGHHHHHH) [Palm-1b]
- intracellular distribution of QD-peptide assemblies [1]: largely well dispersed throughout the cytoplasm

Molecule: KhGDapaVKIKK(P)9GG(H)6 ([Kh]G[Dap](Palmitoyl)VKIKKPPPPPPPPPGGHHHHHH; reading uncertain; also: N-terminal modifications) [JB867]
- QD/TAMRA colocalized (integrity) ([1]; COS1 cells, printed in the % QD uptake column): >90%

Molecule: biKWGSAibAAALGG(R)10 (bi-KWGS[Aib]AAALGGRRRRRRRRRR; reading uncertain) [JB722, Dye labeled cell penetrating peptide, reference compound]
- % Escape in cells with uptake ([1]; COS1 cells): 1%
- Overall uptake/escape: uptake ([1]; COS1 cells): Low
- Overall uptake/escape: escape ([1]; COS1 cells): low

Molecule: WGDapfVKIKK(P)9GG(H)6 [SI09160]
- % Escape in cells with uptake ([1]; COS1 cells): 96%
- Overall uptake/escape: uptake ([1]; COS1 cells): Moderate
- Overall uptake/escape: escape ([1]; COS1 cells): high
